Experimental data: ChEMBL document CHEMBL1201862, “PubChem BioAssay data set” (2004)
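Following 48 hours of exposure in 96-well plates, responses at five concentrations were used to interpolate endpoints linearly. The concentration for 50% growth inhibition is given as GI50.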 Calls of active or inactive are those of the source. No stated cut-off is given here; in the data, active = GI50 up to about 1.1 µM and inactive = higher.

How the values were obtained:
Test in all cases: inhibition of tumour cell growth, NCI panel, 48 h
MOLT-4 = test system: MOLT-4
HCT-116 = test system: HCT-116
UACC-62 = test system: UACC-62
UO-31 = test system: UO-31
COLO 205 = test system: COLO 205
OVCAR-5 = test system: OVCAR-5
SR = test system: SR
CAKI-1 = test system: CAKI-1
TK-10 = test system: TK-10
SK-MEL-5 = test system: SK-MEL-5
OVCAR-4 = test system: OVCAR-4
LOX IMVI = test system: LOX IMVI
NCI-H226 = test system: NCI-H226
SNB-75 = test system: SNB-75
SW-620 = test system: SW-620
KM12 = test system: KM12
Malme-3M = test system: Malme-3M
SK-MEL-28 = test system: SK-MEL-28
RXF 393 = test system: RXF 393
HOP-62 = test system: HOP-62

Measured: GI50

C=C=C(Sc1ccccc1)C(C)(C)OC(C)=O
inactive: MOLT-4 34.5 µM | HCT-116 13.9 µM | UACC-62 14.3 µM | UO-31 14.2 µM | COLO 205 18.4 µM | OVCAR-5 20.3 µM | SR 27.9 µM | CAKI-1 34.9 µM | TK-10 32.5 µM | SK-MEL-5 15.8 µM | OVCAR-4 31.2 µM | LOX IMVI 16.5 µM | NCI-H226 21.4 µM | SNB-75 21.2 µM | SW-620 17.6 µM | KM12 16 µM | Malme-3M 18.3 µM | SK-MEL-28 17.1 µM | RXF 393 14.7 µM

N#CC(C#N)=C1CCC2C(=C(C#N)C#N)CCC12 (stereo not given)
inactive: MOLT-4 > 100 µM | HCT-116 > 100 µM | UACC-62 > 100 µM | UO-31 > 100 µM | COLO 205 > 100 µM | OVCAR-5 > 100 µM | SR > 100 µM | CAKI-1 > 100 µM | TK-10 > 100 µM | SK-MEL-5 > 100 µM | OVCAR-4 > 100 µM | LOX IMVI > 100 µM | NCI-H226 > 100 µM | SNB-75 > 100 µM | SW-620 > 100 µM | HOP-62 > 100 µM | KM12 > 100 µM | Malme-3M > 100 µM | RXF 393 > 100 µM

CC(=O)c1ccc(NC(=O)/C(CC(=O)/C=C/c2ccccc2)=N/NC(N)=S)cc1
inactive: MOLT-4 46.5 µM | HCT-116 > 100 µM | UACC-62 > 100 µM | UO-31 41.1 µM | OVCAR-5 > 100 µM | SR > 100 µM | CAKI-1 > 100 µM | TK-10 > 100 µM | SK-MEL-5 43.7 µM | OVCAR-4 49.5 µM | LOX IMVI > 100 µM | NCI-H226 > 100 µM | SNB-75 > 100 µM | SW-620 > 100 µM | HOP-62 > 100 µM | KM12 44.4 µM | Malme-3M > 100 µM | SK-MEL-28 > 100 µM | RXF 393 > 100 µM

CSc1nc2c(nc(N)n2C2OCC(O)C(O)C2O)c(=O)[nH]1 (stereo not given)
inactive: MOLT-4 > 100 µM | HCT-116 > 100 µM | UACC-62 > 100 µM | UO-31 > 100 µM | COLO 205 > 100 µM | SR > 100 µM | CAKI-1 > 100 µM | TK-10 > 100 µM | SK-MEL-5 > 100 µM | OVCAR-4 > 100 µM | LOX IMVI > 100 µM | NCI-H226 > 100 µM | SNB-75 > 100 µM | SW-620 > 100 µM | HOP-62 > 100 µM | KM12 > 100 µM | Malme-3M > 100 µM | SK-MEL-28 > 100 µM | RXF 393 > 100 µM

O=C(O)C1CC2C=CCC(C2)C1 (stereo not given)
inactive: MOLT-4 > 100 µM | HCT-116 > 100 µM | UACC-62 > 100 µM | UO-31 > 100 µM | COLO 205 > 100 µM | OVCAR-5 > 100 µM | SR > 100 µM | CAKI-1 > 100 µM | TK-10 > 100 µM | SK-MEL-5 > 100 µM | OVCAR-4 > 100 µM | LOX IMVI > 100 µM | NCI-H226 > 100 µM | SNB-75 > 100 µM | SW-620 > 100 µM | HOP-62 > 100 µM | KM12 > 100 µM | Malme-3M > 100 µM | SK-MEL-28 > 100 µM | RXF 393 > 100 µM

O=C(O)/C(O)=C1/C=C(c2ccccc2)c2ccccc21
inactive: MOLT-4 14.8 µM | HCT-116 19.6 µM | UACC-62 16.1 µM | UO-31 19.3 µM | COLO 205 18 µM | OVCAR-5 23.6 µM | SR 18.7 µM | CAKI-1 31.4 µM | TK-10 31.6 µM | SK-MEL-5 17.7 µM | OVCAR-4 26.1 µM | LOX IMVI 17.9 µM | NCI-H226 21.6 µM | SNB-75 22 µM | SW-620 20 µM | HOP-62 25.4 µM | KM12 17.8 µM | Malme-3M 25.5 µM | RXF 393 19.4 µM
